Experimental data as given in patent US8871934B2, “Fluorene compound and pharmaceutical use thereof” (Japan Tobacco Inc., priority 2008, dated 2014).
Where two headings read alike, the source gives them in different places.

Molecular target: human PDHK2 (hPDHK2) (Homo sapiens (Human), UniProt Q15119)
Test: Inhibitory action of PDHK activity in vitro (kinase reaction, residual PDH activity measured)
Format: biochemical
Procedure: In the case of human PDHK2 (hPDHK2, Genbank Accession No. NM_002611), modified hPDHK2 cDNA wherein FLAG-Tag sequence is added to the N terminal by a polymerase linkage reaction was prepared based on hPDHK2 cDNA clone (pReceiver-M01/PDK2-GeneCopoeia), and cloned into a vector (pET17b-Novagen). The recombinant construct was transformed into Escherichia coli (DH5α-TOYOBO). The recombinant clones were identified, plasmid DNA was isolated and subjected to the DNA sequence analysis. One clone which had the expected nucleic acid sequence was selected for expression work.
During the assay, the hPDHK2 enzyme concentration was set to the minimal concentration at which PDH is inhibited the most.
0.05 U/mL PDH (porcine heart PDH complex, Sigma P7032) and 1.6 μg/mL hPDHK2 were mixed in a buffer (50 mmol/L 3-morpholinopropanesulfonic acid (pH 7.0), 20 mmol/L dipotassium hydrogen phosphate, 60 mmol/L potassium chloride, 2 mmol/L magnesium chloride, 0.4 mmol/L EDTA, and 0.2% Pluronic F-68, 2 mmol/L dithiothreitol), the mixture was incubated at 4° C. overnight to give PDH/hPDHK2 complex. The test compound was diluted with dimethyl sulfoxide (DMSO). PDH/hPDHK2 complex (20 μL), test compound (1.5 μL) and 3.53 μmol/L ATP (diluted with buffer, 8.5 μL) were added to a half area 96 well UV-transparent microplate (Corning 3679), and PDHK reaction was performed at room temperature for 45 min. Instead of the test compound, DMSO (1.5 μL) was added to a control well. DMSO (1.5 μL) was added instead of the test compound to a blank well for the measurement of the maximum rate of PDH reaction, and hPDHK2 was not added. Than, 10 μL of substrates (5 mmol/L sodium pyruvate, 5 mmol/L Coenzyme A, 12 mmol/L NAD, and 5 mmol/L thiamine pyrophosphate, diluted with buffer) was added. The mixture was incubated at room temperature for 90 min, and the residual PDH activity was measured. The absorbance at 340 nm before and after PDH reaction was measured on a microplate reader to detect NADH produced by the PDH reaction. The PDHK inhibitory rate (%) of the test compound was calculated from the formula [{(PDH activity of test compound—PDH activity of control)/PDH activity of blank—PDH activity of control)}×100]. The IC50 value was calculated from the concentrations of the test compound at two points enclosing 50% inhibition of the PDHK activity.

[1] = read-out: PDHK inhibitory activity IC50
[2] = PDHK inhibitory activity, class symbol of IC50
[3] = PDHK inhibitory activity (class symbol)

| Structure (SMILES) | IC50 (class symbol of IC50, read-out: PDHK inhibitory activity) | IC50 [1] | IC50 [2] | IC50 [3] |
| --- | --- | --- | --- | --- |
| Cc1cc(C(=O)N2CCC2)cc2c1-c1ccccc1C2(O)C(F)(F)F (single isomer, unassigned) [compound 135] | > 1 µM | > 1 µM | – | – |
| Cc1cc(C(=O)N2CCC2)cc2c1-c1ccccc1C2(O)C(F)(F)F (single isomer, unassigned) [compound 136] | – | 0.025 µM | < 0.1 µM | – |
| Cc1cc(C(=O)N2CC(OCCO)C2)cc2c1-c1ccccc1C2(O)C(F)(F)F (single isomer, unassigned) [compound 152] | – | 0.054 µM | < 0.1 µM | – |
| COC(=O)COc1cc(Br)c2c(c1)C(O)(C(F)(F)F)c1ccccc1-2 (single isomer, unassigned) [compound 451, (4-bromo-9-hydroxy-9-trifluoromethyl-9H-fluoren-2-yloxy)-acetic acid methyl ester] | – | 0.102 µM | 0.1 to 1 µM | – |
| COC(=O)COc1cc(Br)c2c(c1)C(O)(C(F)(F)F)c1ccccc1-2 (single isomer, unassigned) [compound 452] | – | 2.72 µM | > 1 µM | – |
| Cn1cc(-c2cc(OCC(N)=O)cc3c2-c2ccccc2C3(O)C(F)(F)F)cn1 (single isomer, unassigned) [compound 467] | – | 0.018 µM | < 0.1 µM | – |
| COC(=O)c1cc(Br)c2c(c1)C(O)(C(F)(F)F)c1ccccc1-2 (single isomer, unassigned) [compound 473] | – | 0.09 µM | < 0.1 µM | – |
| Cn1cc(-c2cc(OCC(=O)N3CC(CO)C3)cc3c2-c2ccccc2C3(O)C(F)(F)F)cn1 (single isomer, unassigned) [compound 474] | – | 0.019 µM | < 0.1 µM | – |
| Cn1cc(-c2cc(OCC(=O)N3CC(O)C3)cc3c2-c2ccccc2C3(O)C(F)(F)F)cn1 (single isomer, unassigned) [compound 475] | – | 0.02 µM | < 0.1 µM | – |
| NC(=O)COc1cc(-c2cnn(CCO)c2)c2c(c1)C(O)(C(F)(F)F)c1ccccc1-2 (single isomer, unassigned) [compound 477] | – | 0.018 µM | < 0.1 µM | – |
| O=C(O)CCCOc1cc(Cl)c2c(c1)C(O)(C(F)(F)F)c1ccccc1-2 (single isomer, unassigned) [compound 479] | – | > 10 µM | > 1 µM | – |
| COC(=O)COc1cc(Cl)c2c(c1)C(O)(C(F)(F)F)c1ccccc1-2 (single isomer, unassigned) [compound 481, (4-chloro-9-hydroxy-9-trifluoromethyl-9H-fluoren-2-yloxy)-acetic acid methyl ester] | – | 0.251 µM | 0.1 to 1 µM | – |
| Cn1cc(-c2cc(OCCCC(=O)O)cc3c2-c2ccccc2C3(O)C(F)(F)F)cn1 (single isomer, unassigned) [compound 504, 4-[9-hydroxy-4-(1-methyl-1H-pyrazol-4-yl)-9-trifluoromethyl-9H-fluoren-2-yloxy]-butyric acid] | – | 0.019 µM | < 0.1 µM | – |
| Cn1cc(-c2cc(OCCC34CC5CC(CC(O)(C5)C3)C4)cc3c2-c2ccccc2C3(O)C(F)(F)F)cn1 (single isomer, unassigned) [compound 540] | – | 0.016 µM | < 0.1 µM | – |
| NC(=O)Cn1cc(-c2cc(OCCC34CC5CC(CC(O)(C5)C3)C4)cc3c2-c2ccccc2C3(O)C(F)(F)F)cn1 (single isomer, unassigned) [compound 541] | – | 0.015 µM | < 0.1 µM | – |
| OCCn1cc(-c2cc(OCCC34CC5CC(CC(O)(C5)C3)C4)cc3c2-c2ccccc2C3(O)C(F)(F)F)cn1 (single isomer, unassigned) [compound 542] | – | 0.015 µM | < 0.1 µM | – |
| Cn1cc(-c2cc(OCCCCC(=O)O)cc3c2-c2ccccc2C3(O)C(F)(F)F)cn1 (single isomer, unassigned) [compound 552] | – | 0.017 µM | < 0.1 µM | – |
| CC(C)n1cc(-c2cc(OCCCC(=O)O)cc3c2-c2ccccc2C3(O)C(F)(F)F)cn1 (single isomer, unassigned) [compound 553] | – | 0.018 µM | < 0.1 µM | – |
| CCn1cc(-c2cc(OCCCC(=O)O)cc3c2-c2ccccc2C3(O)C(F)(F)F)cn1 (single isomer, unassigned) [compound 554] | – | 0.02 µM | < 0.1 µM | – |
| O=C(O)CCCOc1cc(-c2cccnc2)c2c(c1)C(O)(C(F)(F)F)c1ccccc1-2 (single isomer, unassigned) [compound 561] | – | 0.05 µM | < 0.1 µM | – |

| Structure (SMILES) | IC50 (class symbol of IC50, read-out: PDHK inhibitory activity) | IC50 [1] | IC50 [2] | IC50 [3] |
| --- | --- | --- | --- | --- |
| OC[C@@H](O)Cn1cc(-c2cc(F)cc3c2-c2ccccc2C3(O)C(F)(F)F)cn1 (single isomer, unassigned) [compound 565] | – | 0.018 µM | < 0.1 µM | – |
| OC[C@H](O)Cn1cc(-c2cc(F)cc3c2-c2ccccc2C3(O)C(F)(F)F)cn1 (single isomer, unassigned) [compound 566] | – | 0.021 µM | < 0.1 µM | – |
| Cn1cc(-c2cc(OCCCc3nnn[nH]3)cc3c2-c2ccccc2C3(O)C(F)(F)F)cn1 (single isomer, unassigned) [compound 573] | – | 0.018 µM | < 0.1 µM | – |
| Cc1cc(-c2cnn(C(C)(C)C(=O)O)c2)c2c(c1)C(O)(C(F)(F)F)c1ccccc1-2 (single isomer, unassigned) [compound 574] | – | 0.052 µM | < 0.1 µM | – |
| Cc1cc(-c2cnn(CC(C)(C)C(=O)O)c2)c2c(c1)C(O)(C(F)(F)F)c1ccccc1-2 (single isomer, unassigned) [compound 575] | – | 0.036 µM | < 0.1 µM | – |
| Cc1cc(-c2cnn(C(C)(C)CC(=O)O)c2)c2c(c1)C(O)(C(F)(F)F)c1ccccc1-2 (single isomer, unassigned) [compound 576] | – | 0.03 µM | < 0.1 µM | – |
| CC(CCOc1cc(-c2cnn(C)c2)c2c(c1)C(O)(C(F)(F)F)c1ccccc1-2)C(=O)O (single isomer, unassigned) [compound 577] | – | 0.023 µM | < 0.1 µM | – |
| CCOc1cc(-c2cnn(CCC(=O)O)c2)c2c(c1)C(O)(C(F)(F)F)c1ccccc1-2 (single isomer, unassigned) [compound 581] | – | 0.019 µM | < 0.1 µM | – |
| CCOc1cc(-c2cnn(CCCC(=O)O)c2)c2c(c1)C(O)(C(F)(F)F)c1ccccc1-2 (single isomer, unassigned) [compound 582] | – | 0.021 µM | < 0.1 µM | – |
| COc1cc(-c2cnn(CCC(=O)O)c2)c2c(c1)C(O)(C(F)(F)F)c1ccccc1-2 (single isomer, unassigned) [compound 588] | – | 0.029 µM | < 0.1 µM | – |
| COc1cc(-c2cnn(CCCC(=O)O)c2)c2c(c1)C(O)(C(F)(F)F)c1ccccc1-2 (single isomer, unassigned) [compound 589] | – | 0.025 µM | < 0.1 µM | – |
| O=C(O)CCCOc1cc(-c2cncnc2)c2c(c1)C(O)(C(F)(F)F)c1ccccc1-2 (single isomer, unassigned) [compound 604] | – | 0.035 µM | – | < 0.1 µM |
| Cc1cc(-c2cnn(C(CO)CO)c2)c2c(c1)C(O)(C(F)(F)F)c1ccccc1-2 (single isomer, unassigned) [compound 605] | – | 0.019 µM | – | < 0.1 µM |
| Cc1cc(-c2cnn(CCCCC(=O)O)c2)c2c(c1)C(O)(C(F)(F)F)c1ccccc1-2 (single isomer, unassigned) [compound 606] | – | 0.028 µM | – | < 0.1 µM |
| CC(C)(Cn1cc(-c2cc(F)cc3c2-c2ccccc2C3(O)C(F)(F)F)cn1)C(=O)O (single isomer, unassigned) [compound 607] | – | 0.045 µM | – | < 0.1 µM |
| CC(C)(CC(=O)O)n1cc(-c2cc(F)cc3c2-c2ccccc2C3(O)C(F)(F)F)cn1 (single isomer, unassigned) [compound 610] | – | 0.041 µM | – | < 0.1 µM |
| COc1cc(-c2cnn(C(C)(C)CC(=O)O)c2)c2c(c1)C(O)(C(F)(F)F)c1ccccc1-2 (single isomer, unassigned) [compound 614] | – | 0.037 µM | – | < 0.1 µM |
| COC(=O)c1cc(Cl)cc2c1-c1ccccc1C2(O)C(F)(F)F (single isomer, unassigned) [compound 617] | – | 0.084 µM | – | < 0.1 µM |
| COc1cc(-c2cnn(CC(C)(C)C(=O)O)c2)c2c(c1)C(O)(C(F)(F)F)c1ccccc1-2 (single isomer, unassigned) [compound 619] | – | 0.033 µM | – | < 0.1 µM |
| OCCCCOc1cc(-c2cnn(CCO)c2)c2c(c1)C(O)(C(F)(F)F)c1ccccc1-2 (single isomer, unassigned) [compound 624] | – | 0.014 µM | – | < 0.1 µM |
